Measurements published in patent US20230340127A1, “METHODS AND COMPOSITIONS FOR CANCER TREATMENT BY INHIBITION OF FBXO44” (Sanford Burnham Prebys Medical Discovery Institute, priority 2022, published 2023).

Tested on: MDA-MB-231 or 4T1 cells
Experiment: qRT-PCR of endogenous retroelements, IFN-α/β, ISGs and PD-L1 in F5446-treated cells
Assay type: cell-based
Details: cancer cells (MDA-MB-231, 4T1), qRT-PCR (FIGS. 10F-10G)
Method: Quantitative (q)RT-PCR: total RNA was isolated using the RNeasy Plus Mini Kit (Qiagen no. 74134). cDNA was synthesized using qScript cDNA SuperMix (Quantabio no. 95048) following the manufacturer's instructions. qPCR reactions were performed using SYBR Select Master Mix (Thermo Fisher Scientific no. 4472908) and a Stratagene Mx3000P instrument (Agilent Technologies). Thermal cycling conditions included an initial denaturation step of 95° C. for 10 min and 40 cycles at 95° C. for 15 sec and 60° C. for 60 sec. Analyses were carried out in triplicate for each data point. The qPCR primers used for gene expression analysis of human REs and genes included MajSAT-[…] (SEQ ID NO: 1) and […] (SEQ ID NO: 2), mcBox-[…] (SEQ ID NO: 3) and […] (SEQ ID NO: 4), SATIII-[…] (SEQ ID NO: 5) and […] (SEQ ID NO: 6), Alu-[…] (SEQ ID NO: 7) and […] (SEQ ID NO: 8), L1 ORF1-TGGCCCCCACTCTCTTCT (SEQ ID NO: 18) and […] (SEQ ID NO: 19), L1 ORF2-[…] (SEQ ID NO: 20) and […] (SEQ ID NO: 21), L1 5′-UTR-AAGCAAGCCTGGGCAATG (SEQ ID NO: 22) and […] (SEQ ID NO: 23), HERV-E-[…] (SEQ ID NO: 24) and GCAGCCTAGGTCTCTGG (SEQ ID NO: 25), HERV-F-CCTCCAGTCACAACAACTC (SEQ ID NO: 26) and TATTGAAGAAGGCGGCTGG (SEQ ID NO: 27), HERV-K-[…] (SEQ ID NO: 28) and […] (SEQ ID NO: 29), ERVL-[…] (SEQ ID NO: 30) and […] (SEQ ID NO: 31), GAPDH-[…] (SEQ ID NO: 32) and […] (SEQ ID NO: 33), FBXO44-[…] (SEQ ID NO: 34) and […] (SEQ ID NO: 35), SUV39H1-[…] […]

## COC(=O)c1cc2c(n1S(=O)(=O)c1ccc(Cl)cc1)C(=O)C(=O)c1[nH]cc(C(=O)OCc3ccccc3)c1-2 [F5446]
  expression of various REs and IFN signaling: activated
